# Measured values as given in patent publication US9758787B2, “Engineering microorganisms” (DSM NUTRITIONAL PRODUCTS AG, priority 2011, dated 2017).
# How the values were obtained:
# [1] = system: transformed ONC-T18 strains bearing the zeocin-resistance gene expression cassette; assay: Zeocin sensitivity, spotted colonies on agar plates, transformed strains (Example 8); format: cell-based, Thraustochytrium sp. ONC-T18; settings: 5000 μg/mL zeocin
# Method: (§1) A very small amount of inoculum of zeocin-resistant strains that had been transferred three times via colony passages on zeocin/ONC-T18-GM0 agar plates (as well as their parental strain or the wild type strain) was picked from colonies using a 10 μL pipette tip and re-suspended in 50 μL sterilized water in a 200 μL PCR tube. One μL of the cell suspension was spotted on ONC-T18-GM0 agar plates containing 18 g/L sea salt (15 g/L agar) and zeocin at a concentration ranging from 0 to 5000 μg/mL (Invitrogen, CA, USA). The diameters of the spotted colonies were measured on day 1, day 3, day 5, day 7, and day 8.
# [2] = system: wild type ONC-T18 strains; assay: Growth on zeocin plates after six colony passages without zeocin, wild type (Example 12); format: cell-based, Thraustochytrium sp. ONC-T18; settings: zeocin 200 μg/mL media
# Source text: (§2) Transgene stability is important for certain applications of genetic engineering in industrial microbial strain improvement programs where microorganisms are used in pharmaceutical or industrial processes, and where product quantity and quality are paramount. We therefore carried out transgene stability estimate assays of transformed ONC-T18 strains. As for the growth rate assays described in Example 7, inocula of four strains of each transformation as well as their ancestor wild type strains were spotted on ONC-T18-GM0 agar plates in the absence of zeocin and incubated at 25° C. for seven days. (Each transformation had been performed using one of the five different plasmid constructs, each of which bears various zeocin-resistant gene expression cassettes driven by a combination of different promoters and terminators). Then, using the same method, strains were transferred on a new fresh ONC-T18-GM0 agar plate and incubated at 25° C. for 7 days; colony passages were carried out 6 times. Finally, strains were transferred back onto ONC-T18-GM0 agar plates either without or with zeocin at a concentration of 200 μg/mL media.
# [3] = system: transformed ONC-T18 strains; assay: Growth on zeocin plates after six colony passages without zeocin, transformed strains (Example 12); format: cell-based, Thraustochytrium sp. ONC-T18; settings: zeocin 200 μg/mL media
# Source text: as §2
# [4] = system: Thraustochytrium sp. ONC-T18; assay: Effects of zeocin and salinity on colony numbers and colony diameter of ONC-T18 (Example 4); format: cell-based; settings: for colony numbers: 10 days; for colony numbers / colony growth rates (diameter in mm): mean of two plates
# Method: One hundred μL of ONC-T18 cell suspension diluted at 1:500 from a 2-day culture were spread onto ONC-T18-GM0 plates containing various concentrations of antibiotic zeocin and sea salt. Inoculated plates were incubated in a 25° C. incubator for 10 days. The numbers of the colonies on each plate were counted. […] In plates containing 8.5 g/L sea salt without zeocin, only one colony was observed. In plates containing 18 g/L sea salt without zeocin, colony numbers were similar to that of plates containing 35 g/L sea salt without zeocin. […] Therefore, for this work, 18 g/L sea salt was used to make ONC-T18-GM0 for selection of ONC-T18 transformants transformed with constructs bearing a zeocin-resistant gene expression cassette.
# [5] = cited from earlier work
# [6] = system: Thraustochytrium sp. ONC-T18; assay: Effects of different antibiotics on growth of ONC-T18 on ONC-T18-GM0 agar plates (Example 3); format: cell-based; parameters: sensitivity of ONC-T18 cells to zeocin: dose or concentration left out as unconfirmed
# Method: Thraustochytrium sp. ONC-T18 was grown on agar plates (20 g agar per liter ONC-T18-GM0). One loop of inoculum of ONC-T18 was inoculated into 50 mL of liquid ONC-T18-GM0, and the culture was incubated in a shaker incubator at 25° C. at 250 rpm for 36 hours. Half a milliliter of the culture was transferred into a 1.5 mL tube and vortexed at full speed for 30 seconds to break down cell clusters, then diluted in 50 mL sterilized water. One hundred microliters of the resulting solution was spread onto each ONC-T18-GM0 medium plate. Each plate contained one of various antibiotics at one of various concentrations. Plates were incubated at 25° C. and emergence and development of colonies were observed daily.
# [7] = system: wild type strain of ONC-T18; assay: Zeocin as mutagenic agent on ONC-T18 agar plates (Example 13); format: cell-based, Thraustochytrium sp. ONC-T18
# Method: The marine protist wild type strain of ONC-T18 was chosen as a model system to test if zeocin would be effective to induce mutagenesis in this strain. One full loop of the inocula of ONC-T18, growing in the agar plates containing ONC-T18-GM0 medium[5 g/L yeast extract, 5 g/L peptone, 10 g/L D(+)-glucose, 35 g/L artificial sea salt, 1.25 mg/L trace elements (5 g/L NaH2PO4.H2O, 3.15 g/L FeCl3.6H2O, 4.36 g/L Na2EDTA.2H2O, 0.6125 mg/L CuSO4.5H2O, 0.0597 g/L Na2MoO4.2H2O, 0.022 g/L ZnSO4.7H2O, 0.01 g/L CoCl2.6H2O, 0.18 g/L MnCl2.4H2O, 13 μg/L H2SeO3, 2.7 mg/L NiSO4.6H2O, 1.84 mg/L Na3VO4 and 1.94 mg/L K2CrO4), 1.25 mg/L vitamins (1 mg/L vitamin B12, 1 mg/L biotin, 0.20 g/L thiamine HCl) and 20 g agar per liter], was inoculated into 50 mL liquid ONC-T18-GM0 medium, and incubated in a shaker incubator at 25° C. at 250 rpm for 36 hours. Half a milliliter of culture was transferred into a 1.5 mL tube and vortexed at full speed for 30 seconds, and then diluted in 50 mL sterilized water. One hundred microliters of the diluted inocula were respectively spread on the agar plates containing zeocin at various concentrations (0, 10, 30, 50, and 100 μg/mL). Plates were incubated at 25° C. incubator. The emergence and development of the colonies were observed daily. […] Under these conditions, zeocin was effective within the range of at least 10-200 μg/mL; higher concentrations may well also be effective. For example, concentrations in the range of 200-500 μg/mL or higher could work. […] Under the particular conditions utilized in the present Example, zeocin worked best at 50 μg/mL.
# [8] = system: parental strain (the wild type strain) ONC-T18; assay: Zeocin sensitivity, spotted colonies on agar plates, parental strain (Example 8); format: cell-based, Thraustochytrium sp. ONC-T18; settings: ONC-T18-GM0 agar plates, 18 g/L sea salt
# Method: as §1
compound,measurement,setting,value
"Cc1c(N)nc([C@H](CC(N)=O)NC[C@H](N)C(N)=O)nc1C(=O)N[C@H](C(=O)N[C@H](C)[C@@H](O)[C@H](C)C(=O)N[C@H](C(=O)NCCC1=N[C@@H](c2nc(C(=O)NCCCCN=C(N)N)cs2)CS1)[C@@H](C)O)[C@@H](O[C@@H]1O[C@@H](CO)[C@@H](O)[C@H](O)[C@@H]1O[C@H]1O[C@H](CO)[C@@H](O)[C@H](OC(N)=O)[C@@H]1O)c1cnc[nH]1 [Zeocin, phleomycin D1]",growth of transformed strains,[1]; compared with 1000 μg/mL or less,most strains grew remarkably slower
same,zeocin resistance of some transformant strains,"[1]; e.g., FIG. 13 legend",highly resistant
same,growth of wild type strains,[2],none of the wild type strains were able to grow
same,growth of transformed strains,[3],only the transformed strains grew well
same,zeocin concentration that completely inhibited growth of ONC-T18,[4]; ONC-T18-GM0 agar plates containing 18 g/L sea salt,30 µg/mL
same,zeocin concentration needed for complete inhibition of ONC-T18,[4]; ONC-T18-GM0 agar plates containing 35 g/L sea salt,100 µg/mL
same,colony numbers,"[4]; salt 5 g/L, zeocin 10 μg/mL",0
same,colony growth rates (diameter in mm),"[4]; salt 5 g/L, zeocin 10 μg/mL",0 mm
same,colony numbers,"[4]; salt 5 g/L, zeocin 30 μg/mL",0
same,colony growth rates (diameter in mm),"[4]; salt 5 g/L, zeocin 30 μg/mL",0 mm
same,colony numbers,"[4]; salt 5 g/L, zeocin 50 μg/mL",0
same,colony growth rates (diameter in mm),"[4]; salt 5 g/L, zeocin 50 μg/mL",0 mm
same,colony numbers,"[4]; salt 5 g/L, zeocin 100 μg/mL",0
same,colony growth rates (diameter in mm),"[4]; salt 5 g/L, zeocin 100 μg/mL",0 mm
same,colony numbers,"[4]; salt 8.5 g/L, zeocin 10 μg/mL",0
same,colony growth rates (diameter in mm),"[4]; salt 8.5 g/L, zeocin 10 μg/mL",0 mm
same,colony numbers,"[4]; salt 8.5 g/L, zeocin 30 μg/mL",0
same,colony growth rates (diameter in mm),"[4]; salt 8.5 g/L, zeocin 30 μg/mL",0 mm
same,colony numbers,"[4]; salt 8.5 g/L, zeocin 50 μg/mL",0
same,colony growth rates (diameter in mm),"[4]; salt 8.5 g/L, zeocin 50 μg/mL",0 mm
same,colony numbers,"[4]; salt 8.5 g/L, zeocin 100 μg/mL",0
same,colony growth rates (diameter in mm),"[4]; salt 8.5 g/L, zeocin 100 μg/mL",0 mm
same,colony numbers,"[4]; salt 18 g/L, zeocin 10 μg/mL",11
same,colony growth rates (diameter in mm),"[4]; salt 18 g/L, zeocin 10 μg/mL",4.1 mm
same,colony numbers,"[4]; salt 18 g/L, zeocin 30 μg/mL",0
same,colony growth rates (diameter in mm),"[4]; salt 18 g/L, zeocin 30 μg/mL",0 mm
same,colony numbers,"[4]; salt 18 g/L, zeocin 50 μg/mL",0
same,colony growth rates (diameter in mm),"[4]; salt 18 g/L, zeocin 50 μg/mL",0 mm
same,colony numbers,"[4]; salt 18 g/L, zeocin 100 μg/mL",0
same,colony growth rates (diameter in mm),"[4]; salt 18 g/L, zeocin 100 μg/mL",0 mm
same,colony numbers,"[4]; salt 35 g/L, zeocin 10 μg/mL",22.5
same,colony growth rates (diameter in mm),"[4]; salt 35 g/L, zeocin 10 μg/mL",4.1 mm
same,colony numbers,"[4]; salt 35 g/L, zeocin 30 μg/mL",11
same,colony growth rates (diameter in mm),"[4]; salt 35 g/L, zeocin 30 μg/mL",1.9 mm
same,colony numbers,"[4]; salt 35 g/L, zeocin 50 μg/mL",5
same,colony growth rates (diameter in mm),"[4]; salt 35 g/L, zeocin 50 μg/mL",0.6 mm
same,colony numbers,"[4]; salt 35 g/L, zeocin 100 μg/mL",0
same,colony growth rates (diameter in mm),"[4]; salt 35 g/L, zeocin 100 μg/mL",0 mm
same,stability of zeocin,[5]; high salt concentrations,unstable at high salt concentrations
same,solubility of zeocin,[5]; water,water soluble
same,sensitivity of ONC-T18 cells to zeocin,[6],highly sensitive
same,effect on growth of ONC-T18 (summary in words),[6]; ONC-T18-GM0 agar plates,significantly inhibited the growth
same,colonies seen per plate,[7]; 50 μg/mL zeocin,Only a few of colonies were seen
same,colony sectors with visible colony-morphology changes,[7]; 50 μg/mL zeocin,observed in some of the colonies
same,colony numbers per plate,"[7]; 10, 30, and 50 μg/mL zeocin",gradually reduced
same,sizes of the colonies,"[7]; 30 to 50 μg/mL zeocin, six days post inoculation",gradually decreased
same,concentration at which zeocin worked best as mutagen,[7]; conditions of Example 13,50 µg/mL
same,concentration range in which zeocin was effective as mutagen,[7]; conditions of Example 13,10 to 200 µg/mL
same,zeocin concentration at which the parental strain grew,[8],≤ 30 µg/mL
